Reference: patent US20060069132A1, “Azolecarboxamide herbicides” (priority 2004, published 2006)

Legend:
soybean = test: Test C pre-/postemergence herbicide test; assay type: in vivo, Glycine max; conditions: preemergence
How it was run: (§1)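 Greenhouse-grown plants were evaluated visually 12 to 14 days after treatment, with 100 meaning complete control and 0 no effect. Application was preemergence, or postemergence at 2 to 18 cm.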

redroot pigweed = test: Test A pre-/postemergence herbicide test; assay type: in vivo, Amaranthus retroflexus
How it was run: (§2)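 Plants are held in greenhouse about ten days after treatment, then compared with untreated controls and scored 0 (no effect) to 100 (complete control). Preemergence dosing is a directed soil spray on sown sandy loam; postemergence dosing is spray to runoff at 2–10 cm height.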

eastern black nightshade = test: Test C pre-/postemergence herbicide test; assay type: in vivo, Solanum ptycanthum; conditions: preemergence
How it was run: as §1

barnyardgrass = test: Test A pre-/postemergence herbicide test; assay type: in vivo, Echinochloa crus-galli
How it was run: as §2

lambsquarters = test: Test B pre-/postemergence herbicide test; assay type: in vivo, Chenopodium album; conditions: for Lambsquarters plant response rating (0 to 100 scale) / Plant response rating, Lambsquarters: 0 = no effect, 100 = complete control
How it was run: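 Pre: seeds sown, then sprayed. Post: 1–4-leaf plants (2–18 cm) sprayed at the same time. Paddy: flooded, treated at 2-leaf stage. Formulation: non-phytotoxic solvent with surfactant. Greenhouse 13–15 days; visual 0–100 score relative to controls.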

cocklebur = test: Test C pre-/postemergence herbicide test; assay type: in vivo, Xanthium strumarium; conditions: for Cocklebur plant response rating: Preemergence, scale 0 to 100, 0 no effect, 100 complete control
How it was run: as §1

morningglory = test: Test B pre-/postemergence herbicide test; assay type: in vivo, Ipomoea coccinea; conditions: for Morningglory plant response rating (0 to 100 scale) / Plant response rating, Morningglory: 0 = no effect, 100 = complete control
How it was run: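 Species tested were Echinochloa crus-galli, Ipomoea coccinea, Xanthium strumarium and Oryza sativa, treated both before emergence and at the 1- to 4-leaf stage; rice and barnyardgrass were also tested under flooding at 2 leaves. Greenhouse incubation lasted 13–15 days before visual 0–100 scoring.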

yellow nutsedge = test: Test C pre-/postemergence herbicide test; assay type: in vivo, Cyperus esculentus; conditions: preemergence
How it was run: as §1

kochia = test: Test C pre-/postemergence herbicide test; assay type: in vivo, Kochia scoparia; conditions: preemergence
How it was run: as §1

[1] = 500 g ai/ha, scale 0 to 100 (0 no effect, 100 complete control), visual, 12 to 14 days
[2] = Postemergence, 500 g ai/ha, 0 to 100 scale, 0 no effect, 100 complete control
[3] = Postemergence, 2000 g ai/ha, 0 to 100 scale, 0 no effect, 100 complete control
[4] = Preemergence, 2000 g ai/ha, visual rating, 0 to 100 scale (0 no effect, 100 complete control)
[5] = preemergence, 500 g ai/ha, visual injury, 0 to 100 scale (0 no effect, 100 complete control)
[6] = 125 g ai/ha, scale 0 (no effect) to 100 (complete control), visual, 12 to 14 days
[7] = 500 g ai/ha, visual rating, preemergence
[8] = postemergence, 125 g ai/ha, visual rating, scale 0 (no effect) to 100 (complete control)
[9] = postemergence, 500 g ai/ha, visual rating, scale 0 (no effect) to 100 (complete control)
[10] = 62 g ai/ha, preemergence, scale 0 to 100
[11] = 125 g ai/ha, scale 0 (no effect) to 100 (complete control), visual, 12 to 14 days, preemergence
[12] = 250 g ai/ha, scale 0-100, preemergence
[13] = 125 g ai/ha, visual rating, scale 0 (no effect) to 100 (complete control), postemergence
[14] = postemergence, 500 g ai/ha, scale 0 to 100, 0 is no effect, 100 is complete control
[15] = 125 g ai/ha, 0 is no effect, 100 is complete control, preemergence
[16] = Postemergence, 500 g ai/ha, scale 0 (no effect) to 100 (complete control)
[17] = postemergence, 125 g ai/ha, scale 0 to 100

| Structure (SMILES) | Plant response rating, Soybean (soybean; 62 g ai/ha, scale 0 to 100) | Plant response rating, Soybean (soybean; 250 g ai/ha, scale 0-100) | Plant response rating, Soybean (soybean; [1]) | Pigweed plant response rating (redroot pigweed; [2]) | Plant response rating, Pigweed (redroot pigweed; [3]) | Pigweed plant response rating (redroot pigweed; [4]) | Pigweed plant response rating (redroot pigweed; [5]) | Plant response rating, Nightshade (eastern black nightshade; 62 g ai/ha, scale 0 to 100) | Plant response rating, Nightshade (eastern black nightshade; [1]) | Barnyardgrass plant response rating (barnyardgrass; [2]) | Plant response rating, Barnyardgrass (barnyardgrass; [3]) | Barnyardgrass plant response rating (barnyardgrass; [4]) | Barnyardgrass plant response rating (barnyardgrass; [5]) | Plant response rating, Cocklebur (cocklebur; [10]) | Plant response rating, Cocklebur (cocklebur; [12]) | Plant response rating, Nutsedge, Yellow (yellow nutsedge; 62 g ai/ha, scale 0 to 100) | Plant response rating, Nutsedge, Yellow (yellow nutsedge; [1]) | Plant response rating, Kochia (kochia; 62 g ai/ha, scale 0 to 100) | Plant response rating, Kochia (kochia; 250 g ai/ha, scale 0-100) | Plant response rating, Kochia (kochia; [1]) | other results |
| --- | --- | --- | --- | --- | --- | --- | --- | --- | --- | --- | --- | --- | --- | --- | --- | --- | --- | --- | --- | --- | --- |
| CCc1nc(C(C)(C)C)sc1C(=O)Nc1cccc(C(=O)NCC2CC2)n1 [Compound 215] | 0 | 0 | 0 | 70 | 80 | 85 | 30 | 100 | 100 | 0 | 25 | 35 | 15 | 0 | 0 | 0 | 0 | 100 | 100 | 100 | Plant response rating, Nightshade (eastern black nightshade; [6]): 100; Plant response rating, Nightshade (eastern black nightshade; 250 g ai/ha, scale 0-100): 100; Lambsquarters plant response rating (0 to 100 scale) (lambsquarters; 125 g ai/ha, preemergence): 90; Plant response rating, Lambsquarters (lambsquarters; [7]): 100; Lambsquarters plant response rating (lambsquarters; [8]): 0; Lambsquarters plant response rating (lambsquarters; [9]): 0; Plant response rating, Cocklebur (cocklebur; [11]): 0; Cocklebur plant response rating (cocklebur; 500 g ai/ha): 60; Morningglory plant response rating (0 to 100 scale) (morningglory; 125 g ai/ha, preemergence): 10; Plant response rating, Morningglory (morningglory; [7]): 20; Morningglory plant response rating (morningglory; [8]): 0; Morningglory plant response rating (morningglory; [9]): 40; Plant response rating, Nutsedge, Yellow (yellow nutsedge; [6]): 0; Plant response rating, Nutsedge, Yellow (yellow nutsedge; 250 g ai/ha, scale 0-100): 0; Plant response rating, Kochia (kochia; [6]): 100 |
| CCn1nc(C(C)(C)C)cc1C(=O)Nc1cncc(C(=O)N(C)C)n1 [Compound 287] | 0 | 85 | 95 | 50 | 80 | 100 | 100 | 95 | 100 | 70 | 90 | 100 | 95 | 0 | 10 | 0 | 85 | 85 | 100 | 100 | Plant response rating, Nightshade (eastern black nightshade; [6]): 100; Plant response rating, Nightshade (eastern black nightshade; 250 g ai/ha, scale 0-100): 100; Lambsquarters plant response rating (0 to 100 scale) (lambsquarters; 125 g ai/ha, preemergence): 100; Lambsquarters plant response rating (lambsquarters; [13]): 10; Plant response rating, Lambsquarters (lambsquarters; [7]): 100; Lambsquarters plant response rating (lambsquarters; [14]): 20; Plant response rating, Cocklebur (cocklebur; [11]): 0; Cocklebur plant response rating (cocklebur; 500 g ai/ha): 60; Morningglory plant response rating (0 to 100 scale) (morningglory; 125 g ai/ha, preemergence): 0; Morningglory plant response rating (morningglory; [13]): 0; Plant response rating, Morningglory (morningglory; [7]): 10; Morningglory plant response rating (morningglory; [14]): 20; Plant response rating, Nutsedge, Yellow (yellow nutsedge; [6]): 15; Plant response rating, Nutsedge, Yellow (yellow nutsedge; 250 g ai/ha, scale 0-100): 60; Plant response rating, Kochia (kochia; [6]): 100 |
| CCc1nn(C(C)(C)C)nc1C(=O)Nc1cccc(C(=O)NC2CC2)c1 [Compound 417] | 0 |  | 40 | 100 | 100 | 100 | 95 | 55 | 95 | 65 | 80 | 85 | 60 | 0 | 0 | 0 | 0 | 0 | 100 | 100 | Plant response rating (0 = no effect, 100 = complete control), Soybean (soybean; 125 g ai/ha): 0; Plant response rating (0 = no effect, 100 = complete control), Nightshade (eastern black nightshade; 125 g ai/ha): 60; Plant response rating (0 to 100 scale), Lambsquarters (lambsquarters; [15]): 90; Lambsquarters plant response rating (lambsquarters; [16]): 80; Lambsquarters plant response rating (lambsquarters; [17]): 70; Plant response rating (0 = no effect, 100 = complete control), Cocklebur (cocklebur; 125 g ai/ha, preemergence): 0; Plant response rating, Cocklebur (cocklebur; 500 g ai/ha, scale 0 to 100 (0 no effect, 100 complete control), visual, 12 to 14 days, preemergence): 0; Plant response rating (0 to 100 scale), Morningglory (morningglory; [15]): 0; Morningglory plant response rating (morningglory; [16]): 60; Morningglory plant response rating (morningglory; [17]): 50; Plant response rating (0 = no effect, 100 = complete control), Nutsedge, Yellow (yellow nutsedge; 125 g ai/ha): 0; Plant response rating (0 = no effect, 100 = complete control), Kochia (kochia; 125 g ai/ha): 85 |
